From patent publication US6498149B1, “Natural antitumor or antiviral substances and use of the same” (Techno Seven Co., Ltd., priority 1997, dated 2002)

Experiments:
[1] = Physico-chemical properties (solubility, acid/base nature); format: physicochemical
[2] = tested on: Molt4 (human T cell leukemia cell line); experiment: Suppression of incorporation of 3H-thymidine into / proliferation of the Molt4 cell; format: cell-based; conditions: samples from single HPLC peaks, 7 μg/ml
Experimental: The apoptosis inducing factor (AIF) is produced and released in the supernatant of the NS cell line culture. Thus, the AIF produced by the NS cell was separated and purified by the physico-chemical methods. The activity of AIF was measured by the ability of […] and the DNA fragmentation method. First, the supernatant of the culture of the NS cell line was adsorbed on a C18 column and eluted to separate the AIF. The crude extract was developed on a thin layer chromatography (TLC) plate, and the active fractions were isolated and purified by reverse phase high performance liquid chromatography (HPLC).
The sample lyophilized from 50 ml of the supernatant of the NS cell line culture was subjected to chromatography on a C18 column (BONDELUTE), and the fraction retained in the column was separated and eluted with acetonitrile and methanol, and concentrated to dryness by evaporating the solvents with nitrogen gas.
The fraction was further developed by TLC. That is to say, the solution of the materials separated on the C18 column in chloroform: methanol (1:1) was spotted on a thin layer and developed by chloroform: methanol: distilled water (60:40:8). […]

Structure (SMILES) | discrimination of acidic, neutral and basic substances [1] | solubility [1] | suppression of incorporation of 3H-thymidine into the Molt4 cell [2]
Cc1cn([C@@H]2O[C@H](CO)[C@@H](O)[C@H]2O)c(=O)[nH]c1=O [P2, ribothymidine] | basic substance | soluble in organic solvents such as methanol, dimethylsulfoxide and in water | strong activity
Cc1cn([C@H]2C[C@H](O)[C@@H](CO)O2)c(=O)[nH]c1=O [P4, thymidine] | basic substance | soluble in organic solvents such as methanol, dimethylsulfoxide and in water | –
CO[C@@H]1[C@H](O)[C@@H](CO)O[C@H]1n1cnc2c(=O)[nH]c(N)nc21 [P6, 2′-O-methylguanosine] | basic substance | soluble in organic solvents such as methanol, dimethylsulfoxide and in water | –
CO[C@@H]1[C@H](O)[C@@H](CO)O[C@H]1n1cnc2c(O)ncnc21 [P5, 2′-O-methylinosine] | basic substance | soluble in organic solvents such as methanol, dimethylsulfoxide and in water | –
